Test results reported in patent US6506766B1 (Abbott Laboratories, priority 1998, dated 2003).

Columns and labels:
[1] = biological target: T1, human progesterone receptor-A [PRA] isoform (Homo sapiens, UniProt P06401); assay: Radioligand binding with human progesterone receptor cytosol ([3H]-progesterone competition); conditions: PRA cytosol expressed in insect SF21 cells, [3H]Prog ~0.8 nM, 4° C. overnight; Ki by Cheng-Prusoff, KL ~4.5 nM; read-out: Ki (nM) PR
T1 construct: host or cells: insect SF21 cells (baculovirus)
T1 sequence (P06401 1-769 isoform P06401-2): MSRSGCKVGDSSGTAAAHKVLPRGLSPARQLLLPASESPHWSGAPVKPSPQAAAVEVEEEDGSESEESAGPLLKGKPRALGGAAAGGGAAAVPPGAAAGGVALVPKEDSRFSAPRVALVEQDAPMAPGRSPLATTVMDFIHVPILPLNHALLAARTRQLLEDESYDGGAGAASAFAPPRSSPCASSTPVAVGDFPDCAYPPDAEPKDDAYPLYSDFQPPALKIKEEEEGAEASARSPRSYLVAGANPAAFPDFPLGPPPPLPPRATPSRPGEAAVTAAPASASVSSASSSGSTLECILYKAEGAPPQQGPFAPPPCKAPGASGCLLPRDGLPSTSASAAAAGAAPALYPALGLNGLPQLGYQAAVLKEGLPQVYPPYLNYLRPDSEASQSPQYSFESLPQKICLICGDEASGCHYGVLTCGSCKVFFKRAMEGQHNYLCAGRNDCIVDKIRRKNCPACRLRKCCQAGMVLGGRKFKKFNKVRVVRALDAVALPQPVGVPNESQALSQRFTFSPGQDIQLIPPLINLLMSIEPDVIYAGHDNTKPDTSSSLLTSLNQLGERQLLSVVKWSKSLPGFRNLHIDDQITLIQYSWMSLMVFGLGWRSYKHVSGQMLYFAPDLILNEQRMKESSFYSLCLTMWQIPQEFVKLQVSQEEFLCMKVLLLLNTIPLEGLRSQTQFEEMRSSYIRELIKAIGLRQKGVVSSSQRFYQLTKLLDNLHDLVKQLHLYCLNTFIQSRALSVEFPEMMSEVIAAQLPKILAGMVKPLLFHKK

[2] = biological target: T2, human glucocorticoid receptor-α [GRX] isoform (Homo sapiens, UniProt P04150); assay: Radioligand binding with human glucocorticoid receptor cytosol ([3H]-dexamethasone competition); conditions: GRX cytosol expressed in insect SF21 cells, [3H]-Dex ~0.9 nM, 4° C. overnight; Ki by Cheng-Prusoff, KL ~[…]; read-out: Ki (nM) GR
T2 construct: host or cells: insect SF21 cells (baculovirus)
T2 sequence (P04150 1-777): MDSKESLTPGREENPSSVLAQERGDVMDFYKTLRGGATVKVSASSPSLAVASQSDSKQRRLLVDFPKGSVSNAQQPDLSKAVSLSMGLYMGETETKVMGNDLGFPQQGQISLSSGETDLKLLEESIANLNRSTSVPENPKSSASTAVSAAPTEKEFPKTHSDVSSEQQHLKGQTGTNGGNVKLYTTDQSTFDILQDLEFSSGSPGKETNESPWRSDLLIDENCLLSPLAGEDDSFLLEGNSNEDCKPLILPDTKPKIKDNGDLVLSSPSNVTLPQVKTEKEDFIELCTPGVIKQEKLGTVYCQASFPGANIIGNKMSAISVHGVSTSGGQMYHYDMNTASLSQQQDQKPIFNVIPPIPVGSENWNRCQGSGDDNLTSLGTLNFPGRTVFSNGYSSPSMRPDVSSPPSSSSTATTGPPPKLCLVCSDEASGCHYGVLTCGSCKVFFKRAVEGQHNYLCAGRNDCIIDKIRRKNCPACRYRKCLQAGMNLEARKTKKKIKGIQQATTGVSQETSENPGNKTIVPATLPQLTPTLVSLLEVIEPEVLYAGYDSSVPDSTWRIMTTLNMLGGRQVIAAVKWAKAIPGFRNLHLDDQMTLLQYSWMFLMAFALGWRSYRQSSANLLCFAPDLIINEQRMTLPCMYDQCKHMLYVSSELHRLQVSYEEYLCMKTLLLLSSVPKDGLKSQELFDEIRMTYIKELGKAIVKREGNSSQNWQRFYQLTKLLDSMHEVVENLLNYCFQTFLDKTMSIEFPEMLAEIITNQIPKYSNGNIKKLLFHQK

SMILES | Ki [1] | Ki [2]
COc1cccc2c1-c1ccc3c(c1C([C@@H]1C=C(COC(C)=O)CCC1)O2)C(C)=CC(C)(C)N3 (stereo in doubt) [Example 162] | ≥ 10000 nM | 6.5 nM
COc1cccc2c1-c1ccc3c(c1C(c1ccccc1)O2)C(C)=CC(C)(C)N3 (stereo not shown) [Example 1, 2,5-Dihydro-10-methoxy-2,2,4-trimethyl-5-phenyl-1H-[1]benzopyrano[3,4-f]quinoline1H-[1]benzopyrano[3,4-f]quinoline] | ≥ 10000 nM | 8.6 nM
C=CCC1Oc2cccc(OC)c2-c2ccc3c(c21)C(C)=CC(C)(C)N3 (stereo not shown) [Example 2, 2,5-Dihydro-10-methoxy-2,2,4-trimethyl-5-(2-propenyl)-1H-[1]benzopyrano[3,4-f]quinoline] | 1700 nM | 7.6 nM
C=CCC1Oc2cccc(NC)c2-c2ccc3c(c21)C(C)=CC(C)(C)N3 (stereo not shown) [Example 3, 2,5-Dihydro-2,2,4,N-tetramethyl-5-(2-propenyl)-1H-[1]benzopyrano[3,4-f]quinolin-10-amine] | 2650 nM | 4.8 nM
C=CCC1Oc2cccc(C(=O)OC)c2-c2ccc3c(c21)C(C)=CC(C)(C)N3 (stereo not shown) [Example 4, Methyl 2,5-Dihydro-2,2,4-trimethyl-5-(2-propenyl)-1H-[1]benzopyrano[3,4-f]quinoline-10-carboxylate] | 2960 nM | 7 nM
C=CCC1Oc2cccc(C=C)c2-c2ccc3c(c21)C(C)=CC(C)(C)N3 (stereo not shown) [Example 5, 10-Ethenyl-2,5-dihydro-2,2,4-trimethyl-5-(2-propenyl)-1H-[1]benzopyrano[3,4-f]quinoline] | ≥ 10000 nM | 357 nM
C#Cc1cccc2c1-c1ccc3c(c1C(CC=C)O2)C(C)=CC(C)(C)N3 (stereo not shown) [Example 6, 10-Ethynyl-2,5-dihydro-2,2,4-trimethyl-5-(2-propenyl)-1H-[1]benzopyrano[3,4-f]quinoline] | 321 nM | 3.8 nM
CC1=CC(C)(C)Nc2ccc3c(c21)C(c1ccccc1)Oc1cccc(O)c1-3 (stereo not shown) [Example 7, 2,5-Dihydro-2,2,4-trimethyl-5-phenyl-1H-[1]benzopyrano[3,4-f]quinolin-10-ol] | 5680 nM | 4.3 nM
C=CCC1Oc2cccc(OC(F)F)c2-c2ccc3c(c21)C(C)=CC(C)(C)N3 (stereo not shown) [Example 8, 10-(Difluoromethoxy)-2,5-dihydro-2,2,4-trimethyl-5-(2-propenyl)-1H-[1]benzopyrano[3,4-f]quinoline] | 6010 nM | 168 nM
CCOc1cccc2c1-c1ccc3c(c1C(c1ccccc1)O2)C(C)=CC(C)(C)N3 (stereo not shown) [Example 9, 10-Ethoxy-2,5-dihydro-2,2,4-trimethyl-5-phenyl-1H-[1]benzopyrano[3,4-f]quinoline] | ≥ 10000 nM | 60.5 nM
CC(=O)Oc1cccc2c1-c1ccc3c(c1C(c1ccccc1)O2)C(C)=CC(C)(C)N3 (stereo not shown) [Example 10, 2,5-Dihydro-2,2,4-trimethyl-5-phenyl-1H-[1]benzopyrano[3,4-f]quinoline-10-ol Acetate (Ester)] | 10900 nM | 179 nM
COc1cccc2c1-c1ccc3c(c1C(c1cc(C)cc(Br)c1)O2)C(C)=CC(C)(C)N3 (stereo not shown) [Example 11, 5-(3-Bromo-5-methylphenyl)-2,5-dihydro-10-methoxy-2,2,4-trimethyl-1H-[1]benzopyrano[3,4-f]quinoline] | 288 nM | 4.4 nM
COc1cccc2c1-c1ccc3c(c1C(c1cccc(OC(C)=O)c1)O2)C(C)=CC(C)(C)N3 (stereo not shown) [Example 12, 3-(2,5-Dihydro-10-methoxy-2,2,4-trimethyl-1H-[1]benzopyrano[3,4-f]quinolin-5-yl)phenol, Acetate (Ester)] | ≥ 10000 nM | 8.6 nM
COc1cccc2c1-c1ccc3c(c1C(c1cccc(O)c1)O2)C(C)=CC(C)(C)N3 (stereo not shown) [Example 13, 3-(2,5-Dihydro-10-methoxy-2,2,4-trimethyl-1H-[1]benzopyrano[3,4-f]quinolin-5-yl)phenol] | ≥ 10000 nM | 11.1 nM

Continued, values first:

Ki [1] | Ki [2] | SMILES
≥ 10000 nM | 20 nM | C=CCC1Oc2cccc(OC)c2-c2ccc3c(c21)C(C)=CC(C)(C)N3 (single isomer, unassigned; (+)) [Example 37, (+)-2,5-Dihydro-10-methoxy-2,2,4-trimethyl-5-(2-propenyl)-1H-[1]benzopyrano[3,4-f]quinoline]
2100 nM | 110 nM | COc1c(O)ccc2c1-c1ccc3c(c1C(C1C=CCCC1)O2)C(C)=CC(C)(C)N3 (single isomer, unassigned; (+)) [Example 284]
1700 nM | 1.4 nM | C=CCC1Oc2cccc(OC)c2-c2ccc3c(c21)C(C)=CC(C)(C)N3 (single isomer, unassigned; (-)) [Example 36, (−)2,5-Dihydro-10-methoxy-2,2,4-trimethyl-5-(2-propenyl)-1H-[1]benzopyrano[3,4-f]quinoline]
11.5 nM | 1.2 nM | COc1c(O)ccc2c1-c1ccc3c(c1[C@H](C1(C)CC=CCC1)O2)C(C)=CC(C)(C)N3 (single isomer, unassigned; (-)) [Example 238]
2.9 nM | 0.28 nM | CC1=CC(C)(C)Nc2ccc3c(c21)C(C1CCCC1)Oc1ccc(O)c(Cl)c1-3 (single isomer, unassigned; (-)) [Example 422, (−)2,5-Dihydro-9-hydroxy-10-chloro-2,2,4-trimethyl-5-cyclopentyl-1H-[1]benzopyrano[3,4-f]quinoline]
≥ 10000 nM | 238 nM | COc1cccc2c1-c1ccc3c(c1[C@@H](C1CCCOC1=O)O2)C(C)=CC(C)(C)N3 (stereo in doubt) [Example 134, rel (5R,2′R) 2,5-Dihydro-10-methoxy-5-(2-oxo-3-tetrahydropyranyl)-2,2,4-trimethyl-1H[1]benzopyrano[3,4-f]quinoline]
≥ 10000 nM | 1.8 nM | COc1cccc2c1-c1ccc3c(c1[C@H](C1(C)CC=CCC1)O2)C(C)=CC(C)(C)N3 (stereo in doubt) [Example 152, rel (5S,3′S) 2,5-Dihydro-10-methoxy-5-(1-methyl-3-cyclohexenyl)-2,2,4-trimethyl-1H[1]benzopyrano[3,4-f]quinoline]
≥ 10000 nM | 3.3 nM | COc1cccc2c1-c1ccc3c(c1C([C@H]1C=C(CSC)CCC1)O2)C(C)=CC(C)(C)N3 (stereo in doubt) [Example 161]
5630 nM | 8.16 nM | COc1cccc2c1-c1ccc3c(c1C([C@@H]1C=C(CSC)CCC1)O2)C(C)=CC(C)(C)N3 (stereo in doubt) [Example 166]
≥ 10000 nM | 21 nM | COc1cccc2c1-c1ccc3c(c1C([C@H]1C=C(CN4CCOCC4)CCC1)O2)C(C)=CC(C)(C)N3 (stereo in doubt) [Example 167, rel (5R, 3′R) 2,5-Dihydro-10-methoxy-5-(1-(N-morpholino)methyl-3-cyclohexenyl)-2,2,4-trimethyl-1H-[1]benzopyrano[3,4-f]quinoline]
≥ 10000 nM | 300 nM | COc1cccc2c1-c1ccc3c(c1C([C@@H]1C=C(CN(C)C)CCC1)O2)C(C)=CC(C)(C)N3 (stereo in doubt) [Example 169, rel (5R, 3′S) 2,5-Dihydro-10-methoxy-5-(1-(N,N dimethylamino)methyl-3-cyclohexenyl)-2,2,4-trimethyl-1H-[1]benzopyrano[3,4-f]quinoline]
≥ 10000 nM | 5.2 nM | COc1cccc2c1-c1ccc3c(c1C(c1cccc(OCSC)c1)O2)C(C)=CC(C)(C)N3 (stereo not shown) [Example 14, 2,5-Dihydro-10-methoxy-2,2,4-trimethyl-5-[[3-(methylthio)methoxy]phenyl]-1H-[1]benzopyrano[3,4-f]quinoline]
